Measured values taken from patent US6352852B1, “Method for the purification of human platelet heparanase” (The Australian National University, priority 1996, dated 2002).

What was measured:
[1] = molecular target: T1, Human platelet homogenate heparanase activity (Homo sapiens, UniProt Q9Y251); assay: Substrate degradation by human platelet homogenate heparanase activity; assay type: biochemical
T1 construct: assessed using the highly invasive rat mammary adenocarcinoma 13762 MAT and human platelet homogenates; from tissue; host or cells: human platelets (Triton X-100 freeze/thaw homogenate)
T1 sequence (Q9Y251 36-543): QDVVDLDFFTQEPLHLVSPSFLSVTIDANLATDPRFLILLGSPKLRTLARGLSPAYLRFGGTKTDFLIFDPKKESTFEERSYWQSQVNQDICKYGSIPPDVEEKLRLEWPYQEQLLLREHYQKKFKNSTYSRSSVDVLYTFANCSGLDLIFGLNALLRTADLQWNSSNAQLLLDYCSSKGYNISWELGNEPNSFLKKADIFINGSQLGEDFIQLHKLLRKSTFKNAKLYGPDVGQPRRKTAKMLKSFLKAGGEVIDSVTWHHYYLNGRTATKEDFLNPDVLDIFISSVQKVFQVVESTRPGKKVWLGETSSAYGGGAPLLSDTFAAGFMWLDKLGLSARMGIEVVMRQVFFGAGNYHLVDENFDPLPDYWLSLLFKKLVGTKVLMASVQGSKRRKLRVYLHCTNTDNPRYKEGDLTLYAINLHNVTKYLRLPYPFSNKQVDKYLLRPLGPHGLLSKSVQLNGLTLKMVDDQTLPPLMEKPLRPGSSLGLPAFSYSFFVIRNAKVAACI
Protocol: (§1) To assay for heparanase activity, up to 2 μl of sample was added to an incubation mixture consisting of 90 pmol of radiolabelled HS in 0.05M-sodium acetate buffer, pH 5.1, containing 5 mM-N-acetylmannosamine and 0.1 mg/ml BSA in a total volume of 20 μl and incubated at 37° C. for the appropriate time. The reaction was stopped by freezing the tubes, 0.3 ml cold PBS added, the solution centrifuged if necessary at 4° C. and 0.1 ml of the sample applied to a cHRG-Sepharose mini-column pre-equilibrated in PBS. The columns were washed with 0.7 ml PBS, the washings and flow through material transferred to a scintillation vial, 10 ml of scintillation fluid added, and the radioactivity determined. Enzyme activity was expressed as pmol product formed per hour per mg protein or 10^6 cells or ml of serum. The cHRG-Sepharose columns were regenerated by the addition of 1 ml of 0.05M-Tris-HCl buffer, pH 7.5, containing 2M-NaCl and then equilibrated with PBS.
Heparanase activity was also detected by gel filtration chromatography of the incubation mixture on a Superose 6 HR 10/30 column (Pharmacia LKB Biotechnology, Uppsala, Sweden), equilibrated in and subsequently developed in PBS. The Pharmacia FPLC system was run at a flow rate of 0.25 ml/min with 0.5 ml fractions collected directly into scintillation vials, to which 3 ml of scintillation fluid was added, and the radioactivity determined. […]

[2] = molecular target: T2, 13762 MAT cell heparanase (Rattus norvegicus, UniProt Q71RP1); assay: Gel filtration analysis of substrate degradation by rat 13762 MAT cell homogenate; assay type: biochemical; conditions: for apparent Mr of degradation fragments: with NAM; for heparanase activity towards the substrate: incubation for 16 h at pH 5.1, 6.5 or 7.5
T2 construct: A time course incubation of 13762 MAT cell homogenates with HS at pH 5.1; endogenous in cells; host or cells: rat mammary adenocarcinoma 13762 MAT cells (Triton X-100 freeze/thaw homogenate)
T2 sequence (Q71RP1 29-536): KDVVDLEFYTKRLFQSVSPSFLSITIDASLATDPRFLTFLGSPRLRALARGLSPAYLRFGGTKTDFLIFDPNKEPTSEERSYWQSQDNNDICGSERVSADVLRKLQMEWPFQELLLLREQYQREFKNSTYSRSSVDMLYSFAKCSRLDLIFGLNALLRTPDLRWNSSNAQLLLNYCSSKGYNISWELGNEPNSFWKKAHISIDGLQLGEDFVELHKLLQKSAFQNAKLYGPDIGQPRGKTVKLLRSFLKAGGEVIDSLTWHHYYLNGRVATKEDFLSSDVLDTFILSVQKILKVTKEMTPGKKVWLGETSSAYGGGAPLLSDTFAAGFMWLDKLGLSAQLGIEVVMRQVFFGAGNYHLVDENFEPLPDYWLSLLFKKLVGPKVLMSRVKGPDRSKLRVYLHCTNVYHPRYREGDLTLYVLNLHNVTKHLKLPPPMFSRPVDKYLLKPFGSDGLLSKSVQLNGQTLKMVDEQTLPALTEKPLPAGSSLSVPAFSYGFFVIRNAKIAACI
Protocol: as §1, with “[…],” for “incubation mixture consisting of 90 pmol of radiolabelled HS in 0.05M-sodium acetate buffer, pH 5.1,”
Heparanase activity was also detected by gel filtration chromatography of the incubation mixture on a Superose 6 HR 10/30 column (Pharmacia LKB Biotechnology, Uppsala, Sweden), equilibrated in and subsequently developed in PBS. The Pharmacia FPLC system was run at a flow rate of 0.25 ml/min with 0.5 ml fractions collected directly into scintillation vials, to which 3 ml of scintillation fluid was added, and the radioactivity determined. The column was calibrated with ^3H-N-acetylglucosamine (221 Da), bovine lung heparin (12.5 kDa) and heparin-derived Mr ave. standards (16.7, 10.6, 6.7 and 3.1 kDa) which had been partially de-N-acetylated and re-N-acetylated with ^3H-acetic anhydride as described above for the preparation of radiolabelled HS. Radiolabelled chondroitin-6-sulphate and carboxyl-reduced HS (prepared by the method of Karamanos et al, (1988)) were also prepared by the above method.

cHRG-Sepharose = assay: Binding of HS to cHRG-Sepharose, NaCl gradient elution; design: species or system chicken; conditions: salt gradient at pH 7.2
Protocol: Binding of HS to cHRG-Sepharose; Samples in 200 μl of PBS were applied to a mini-column (0.5×4.0 cm) of cHRG-Sepharose equilibrated in PBS at 4° C. The column was washed with 2 ml of PBS and eluted with a linear gradient (2×10 mls) of PBS and 10 mM-sodium phosphate buffer, pH7.2, containing 1.2M-NaCl developed at 0.5 ml/min with 0.5 ml fractions collected directly into scintillation vials, to which 4 ml of scintillation fluid was added and the radioactivity determined. The columns were re-equilibrated in PBS for further use.

[3] = molecular target: T3, human platelet heparanase (Homo sapiens, UniProt Q9Y251); assay: Heparanase assay 2: gel filtration analysis of HS or heparin degradation by purified human platelet heparanase; assay type: biochemical; conditions: 16 h at 37° C.
T3 construct: human platelet heparanase has been purified to homogeneity from previously frozen, washed platelets; from tissue; host or cells: human platelets (frozen, washed; five-column purification)
T3 sequence (Q9Y251 158-543 limits assumed): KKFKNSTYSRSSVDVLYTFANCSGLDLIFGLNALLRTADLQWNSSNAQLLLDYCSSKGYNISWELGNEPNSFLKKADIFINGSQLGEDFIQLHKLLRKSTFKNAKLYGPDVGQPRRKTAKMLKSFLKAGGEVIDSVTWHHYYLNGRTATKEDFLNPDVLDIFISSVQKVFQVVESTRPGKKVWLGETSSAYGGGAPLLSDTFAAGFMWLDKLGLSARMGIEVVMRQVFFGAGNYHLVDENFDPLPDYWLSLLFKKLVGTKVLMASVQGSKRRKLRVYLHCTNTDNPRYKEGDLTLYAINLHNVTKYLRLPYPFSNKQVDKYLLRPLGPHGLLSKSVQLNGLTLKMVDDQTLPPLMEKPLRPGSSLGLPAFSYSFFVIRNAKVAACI
T3 sequence (Q9Y251 36-109 limits assumed): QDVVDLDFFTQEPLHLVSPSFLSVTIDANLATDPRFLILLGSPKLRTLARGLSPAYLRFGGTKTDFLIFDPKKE
Protocol: Heparanase activity towards 2 μg of the radiolabelled HS or heparin analogues was assayed as described above for 16 h at 37° C., and detected by gel filtration analysis of the incubation mixture on either Superose 6 (for HS degradation) or Superose 12 (for heparin degradation). The chromatography columns were both equilibrated in and developed with PBS at a flow rate of 0.25 ml/min with 0.5 ml fractions being collected directly into scintillation vials, to which 3 ml of scintillation fluid was added, and the radioactivity determined. The columns were calibrated with ^3H-N-acetylglucosamine (221 Da), bovine lung heparin (12.5 kDa) and heparin-derived Mrave. standards (16.7, 10.6, 6.7 and 3.1 kDa) which had been partially de-N-acetylated and re-N-acetylated with ^3H-acetic anhydride as described above for the preparation of radiolabelled HS.

Storage stability = assay type: physicochemical; conditions: stored at −20° C. in 10% (v:v) aqueous ethanol, repeated freezing and thawing

Substance: heparan sulphate [HS]
- size of digestion fragments [1]: 5 kDa
- apparent Mr of degradation fragments ([2]; pH 5.1, 16 h at 37° C.): 5 kDa
- apparent Mr of degradation fragments ([2]; pH 6.5, 16 h at 37° C.): 8 kDa
- apparent Mr of degradation fragments ([2]; pH 7.5, 16 h at 37° C.): 16 kDa
- NaCl concentration eluting from cHRG-Sepharose (cHRG-Sepharose): 0.27 M-NaCl
- size of fragments after cleavage [3]: 5 kDa
- storage stability (Storage stability): stable for over a year

Substance: carboxyl-reduced heparan sulphate [CR-HS]
- heparanase activity towards the substrate [1]: did not act
- heparanase activity towards the substrate [2]: No activity was detected

Substance: chondroitin-6-sulphate [chrondroitin-6-sulphate]
- heparanase activity towards the substrate [2]: No activity was detected
